Laboratory results: US11472845B2, “Antitumor peptide and use thereof” (TOAGOSEI CO., LTD., priority 2019, dated 2022)
Like-named read-outs stand apart in the source and are kept apart here. Ends that are not written are not given here.

Legend:
[1] = test system: human breast cancer cell lines (MDA-MB-231); format: cell-based; conditions: for Cell viability (%) of test cells: human, 48 h
Method: (§1) The antitumor activity of Sample 1 synthesized in the above Test Example 1 with respect to human-derived cultured tumor cells was evaluated. Currently commercially available human gastric cancer cell lines (FU97), human alveolar basal epithelial adenocarcinoma cell lines (A549), human breast cancer cell lines (MDA-MB-231), and human melanoma cell lines (A375) were prepared as test tumor cells. In addition, normal human mammary epithelial cell culture lines (MCF-12F) were prepared for comparison. A DMEM culture medium including 0.1 mM of non-essential amino acids, 50 unit/mL of penicillin, 50 μg/mL of streptomycin, and 10% FBS. The above five types of cell lines were cultured in respective designated culture solutions. The cell lines were cultured so that the number of cells per well in a 96-hole (well) plate was about 5×10^3. Here, an amount of the culture solution per well was 100 μL. The 96-well plate was then placed in a CO2 incubator. Then, pre-incubation was performed under conditions of 37° C. and 5% CO2 for about 1 day (about 23 hours). Then, regarding the culture solution for the peptide addition area, culture solutions containing Sample 1 for each concentration were prepared so that the concentration of Sample 1 was 6.25 μM, 12.5 μM or 25 μM and supplied to wells (that is, wells after the pre-incubation) in which 90 μL of cells to be evaluated were cultured in each well. On the other hand, regarding the culture solution for the comparative test area, a culture solution to which no Sample 1 was added was prepared, and supplied to wells (that is, wells after the pre-incubation) in which 90 μL of cells to be evaluated were cultured in each well. The 96-well plate was then placed in a CO2 incubator, and incubated under conditions of 37° C. and 5% CO2 for 48 hours. […] Then, the absorbance at a wavelength of 450 nm (value corrected by the absorbance at a wavelength of 620 nm: A450-A620) was measured based on the reduction of the tetrazolium salt in the culture solution. Then, the cell viability was calculated according to a colorimetric method. In the test areas (test areas 1 to 3) in the peptide addition area, the cell viability of each of the above five types of cell lines was calculated as a relative value when a measured value (measurement absorbance) of the comparative test area in the same cell lines was set as 100%. That is, regarding each of the above five types of cell lines, the cell viability (%) was calculated by dividing the measurement absorbance of the test areas (test areas 1 to 3) in the peptide addition area by the measurement absorbance of the comparative test area in the same cell lines and multiplying by 100.

[2] = test system: human melanoma cell lines (A375); format: cell-based; conditions: for Cell viability (%) of test cells: human, 48 h
Method: as §1, with “including” for “including 0.1 mM of non-essential amino acids,”, “hours. After the incubation for 48 hours, the culture solution in each well was replaced with […] a fresh culture solution containing no Sample 1.” for “hours.”

MACLGFQRHKAQLNLATRTWPCTLLFFLLFIPVFCKKRTLRKTDRKKR-NH2 (cysteines drawn unpaired) [Sample 1]
Specific cell viability of test tumor cells ([1]; MDA-MB-231, 12.5 μM Sample 1, (cell viability of test tumor cells)/(cell viability of MCF-12F cells)×100): 47.9 | Cell viability (%) of test cells ([1]; 6.25 μM): 67.8% | Cell viability (%) of test cells ([1]; 12.5 μM): 54.7% | Cell viability (%) of test cells ([1]; 25 μM): 41.6% | Specific cell viability of test tumor cells ([2]; A375, 12.5 μM Sample 1, (cell viability of test tumor cells)/(cell viability of MCF-12F cells)×100): 35.7 | Cell viability (%) of test cells ([2]; 6.25 μM): 57.8% | Cell viability (%) of test cells ([2]; 12.5 μM): 40.8% | Cell viability (%) of test cells ([2]; 25 μM): 31.6%
